Laboratory results taken from article PMC10252614 (International Journal of Molecular Sciences, 2023).

Assays:
human AChE (hAChE) = target: T1, human AChE (hAChE) (Homo sapiens, UniProt P22303); test: hAChE inhibition, modified Ellman's method; format: biochemical; conditions: read-out: % of AChE inhibition
T1 construct: made in house
Experimental: (§1) N-Methylpropargylamine-quinazolines were tested for their inhibitory potency against human AChE (hAChE) and human BChE (hBChE) enzymes using the modified spectrophotometric method of Ellman et al..
(§2) The human recombinant BChE and AChE were prepared at the Department of Toxicology and Military Pharmacy (Faculty of Military Health Sciences, Hradec Kralove, Czech Republic). 5,5′-dithiobis(2-nitrobenzoic acid) (Ellman’s reagent, DTNB), phosphate buffer (PB, pH 7.4), acetylthiocholine (ATC) and butyrylthiocholine (BTC), were purchased from Sigma-Aldrich, Prague, Czech Republic. For measuring purposes, polystyrene Nunc 96-well microplates with a flat-bottom shape (ThermoFisher Scientific, Waltham, MA, USA) were utilized. All the assays were carried out in 0.1 M KH2PO4/K2HPO4 buffer, pH 7.4. Enzyme solutions were prepared at 2.0 units/mL in 2 mL aliquots. The assay medium consisted of a 0.1 M phosphate buffer (pH 7.4), 0.01 M DTNB, the enzyme, and 0.01 M substrate (ATC/BTC iodide solution). Concentration 1 µM was tested and the % of inhibition was calculated. Tested compounds were pre-incubated for 5 min. The reaction was started by immediate addition of 20 μL of the substrate. […] Each concentration was assayed in triplicate. Software GraphPad Prism 5 (San Diego, CA, USA) was used for the statistical data evaluation.

human BChE (hBChE) = target: T2, human BChE (hBChE) (Homo sapiens, UniProt P06276); test: hBChE inhibition, modified Ellman's method; format: biochemical; conditions: 10^-6 M
T2 construct: made in house
T2 sequence (P06276 29-602): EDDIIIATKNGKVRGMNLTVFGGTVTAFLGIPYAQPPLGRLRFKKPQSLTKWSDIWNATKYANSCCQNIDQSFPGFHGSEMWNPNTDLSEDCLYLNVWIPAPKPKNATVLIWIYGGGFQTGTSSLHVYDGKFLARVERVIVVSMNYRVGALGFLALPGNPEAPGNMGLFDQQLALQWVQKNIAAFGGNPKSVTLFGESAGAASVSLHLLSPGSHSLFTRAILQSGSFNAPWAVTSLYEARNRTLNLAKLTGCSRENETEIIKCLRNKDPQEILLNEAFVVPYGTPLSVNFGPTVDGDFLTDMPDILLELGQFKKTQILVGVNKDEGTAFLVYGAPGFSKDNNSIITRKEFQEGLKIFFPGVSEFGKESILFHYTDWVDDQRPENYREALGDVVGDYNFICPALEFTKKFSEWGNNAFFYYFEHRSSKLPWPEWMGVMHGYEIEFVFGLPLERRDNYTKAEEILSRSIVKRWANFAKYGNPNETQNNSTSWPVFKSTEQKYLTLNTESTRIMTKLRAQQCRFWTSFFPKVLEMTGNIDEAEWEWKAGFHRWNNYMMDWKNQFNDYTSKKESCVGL
Experimental: as §1, §2

in vitro = conditions: human
GluN1/GluN2B receptor = target: T3, GluN1/GluN2B receptor (Homo sapiens, UniProt Q05586+Q13224); test: whole-cell patch-clamp on HEK293 cells expressing GluN1/GluN2B NMDAR; format: cell-based; conditions: HEK293, 10 µM, −60 mV, ± SEM (n = 5–6), 100% = full inhibition; read-out: Relative inhibition (RI) of GluN1/GluN2B NMDAR
T3 construct: expressed in transfected cells; host or cells: HEK293
T3 sequence (Q13224 27-1484, other chains not shown): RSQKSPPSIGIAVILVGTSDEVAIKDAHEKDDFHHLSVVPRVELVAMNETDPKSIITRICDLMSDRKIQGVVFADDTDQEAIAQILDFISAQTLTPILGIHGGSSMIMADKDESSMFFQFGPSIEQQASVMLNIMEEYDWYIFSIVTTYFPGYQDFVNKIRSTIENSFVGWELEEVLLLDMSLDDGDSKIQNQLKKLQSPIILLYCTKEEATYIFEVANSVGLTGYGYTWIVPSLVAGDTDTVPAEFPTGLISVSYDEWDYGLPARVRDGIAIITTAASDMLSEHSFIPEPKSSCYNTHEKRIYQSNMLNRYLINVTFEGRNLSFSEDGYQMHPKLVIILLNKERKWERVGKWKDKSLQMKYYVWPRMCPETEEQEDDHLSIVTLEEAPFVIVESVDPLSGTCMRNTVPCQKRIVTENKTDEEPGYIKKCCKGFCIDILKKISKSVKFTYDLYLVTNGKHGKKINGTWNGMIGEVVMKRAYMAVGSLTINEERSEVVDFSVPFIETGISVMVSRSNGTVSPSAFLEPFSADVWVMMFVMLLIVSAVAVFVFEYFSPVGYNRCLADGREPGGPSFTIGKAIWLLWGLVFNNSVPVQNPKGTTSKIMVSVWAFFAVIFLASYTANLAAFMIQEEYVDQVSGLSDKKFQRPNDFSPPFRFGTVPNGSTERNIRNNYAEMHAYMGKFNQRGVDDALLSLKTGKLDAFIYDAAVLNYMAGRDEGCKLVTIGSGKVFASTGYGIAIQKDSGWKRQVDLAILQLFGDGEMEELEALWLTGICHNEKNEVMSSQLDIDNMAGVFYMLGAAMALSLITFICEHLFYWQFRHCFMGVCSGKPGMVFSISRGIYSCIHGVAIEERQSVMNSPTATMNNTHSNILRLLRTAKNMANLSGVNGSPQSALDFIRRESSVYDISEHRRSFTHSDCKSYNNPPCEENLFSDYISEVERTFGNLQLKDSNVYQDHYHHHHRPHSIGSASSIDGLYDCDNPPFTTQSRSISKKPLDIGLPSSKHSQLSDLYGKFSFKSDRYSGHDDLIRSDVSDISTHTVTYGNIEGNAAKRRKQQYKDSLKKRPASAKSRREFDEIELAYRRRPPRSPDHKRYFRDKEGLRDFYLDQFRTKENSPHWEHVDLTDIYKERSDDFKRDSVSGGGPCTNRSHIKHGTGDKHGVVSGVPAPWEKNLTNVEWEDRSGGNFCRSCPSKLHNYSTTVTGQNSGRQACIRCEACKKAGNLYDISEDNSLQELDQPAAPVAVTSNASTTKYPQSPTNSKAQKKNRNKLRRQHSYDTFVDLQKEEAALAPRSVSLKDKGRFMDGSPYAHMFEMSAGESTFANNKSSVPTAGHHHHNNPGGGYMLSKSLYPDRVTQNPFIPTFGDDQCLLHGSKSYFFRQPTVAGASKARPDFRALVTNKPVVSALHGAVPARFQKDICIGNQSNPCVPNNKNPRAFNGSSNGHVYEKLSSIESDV
Experimental: We tested the derivatives by the whole-cell patch-clamp method at a concentration of 10 μM under steady-state conditions in the presence of the saturating concentrations of NMDAR (co-)agonists (L-glutamate and glycine). […] Whole-cell patch-clamp recordings were performed using an Axopatch 200B amplifier (Molecular Devices, LLC., San Jose, CA, USA) at a holding membrane potential of −60 mV. HEK293 cells were co-transfected with DNA vectors encoding human versions of the GluN1-4a (GluN1) and GluN2B subunits and green fluorescent protein (GFP) in a 1:1:1 ratio using 0.9 μL PolyMag reagent (OZ Biosciences SAS, Marseille, France) in 50 μL Opti-MEM I [56, 57]. After 15 min on a magnetic plate, HEK293 cells were trypsinized and resuspended in Opti-MEM I medium containing 1% FBS, 2 mM MgCl2 and 3 mM kynurenic acid (to reduce cell death caused by activation of NMDARs). Electrophysiological measurements were performed 24–48 h after completion of transfection at room temperature. The extracellular recording solution (ECS) contained (in mM): 160 NaCl, 2.5 KCl, 10 HEPES, 10 D-glucose, 0.2 EDTA, and 0.7 CaCl2 (pH 7.3 with NaOH). […] A microprocessor-controlled rapid perfusion system with a time constant for solution exchange around the recorded cell of ~20 ms was used. Currents were low-pass filtered at 2 kHz using an eight-pole Bessel filter, digitized at 5 kHz, and recorded using the pCLAMP 10 program (Molecular Devices, LLC., San Jose, CA, USA). The co-agonist glycine (100 µM) was applied throughout the recording, and the agonist L-glutamate (1 mM) was used to elicit responses of GluN1/GluN2B receptors.

T1 sequence (P22303 32-614): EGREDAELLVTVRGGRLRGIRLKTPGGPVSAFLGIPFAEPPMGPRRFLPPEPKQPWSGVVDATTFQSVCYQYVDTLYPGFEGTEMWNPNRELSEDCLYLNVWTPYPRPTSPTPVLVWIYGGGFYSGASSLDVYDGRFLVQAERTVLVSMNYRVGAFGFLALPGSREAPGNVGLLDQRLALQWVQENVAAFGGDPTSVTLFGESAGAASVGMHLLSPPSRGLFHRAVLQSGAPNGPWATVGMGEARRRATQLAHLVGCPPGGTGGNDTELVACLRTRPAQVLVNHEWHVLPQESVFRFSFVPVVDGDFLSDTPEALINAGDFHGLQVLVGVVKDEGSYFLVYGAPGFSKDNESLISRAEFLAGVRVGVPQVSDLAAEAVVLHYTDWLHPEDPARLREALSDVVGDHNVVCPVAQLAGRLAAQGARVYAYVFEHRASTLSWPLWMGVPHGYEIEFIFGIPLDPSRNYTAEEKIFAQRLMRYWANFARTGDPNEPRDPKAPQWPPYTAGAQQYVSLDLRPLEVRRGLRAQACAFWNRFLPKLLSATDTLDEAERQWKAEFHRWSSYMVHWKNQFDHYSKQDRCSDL

| Structure (SMILES) | inhibition at 1 µM (human AChE (hAChE)) [%] | inhibition at 1 µM (human BChE (hBChE)) [%] | IC50 at 24 h (in vitro) [µM] | inhibition at 10 µM (GluN1/GluN2B receptor) [%] |
| --- | --- | --- | --- | --- |
| C#CCN(C)c1nc(NC(C)C)c2cc(OC)ccc2n1 [III-6d, 6-methoxy-N2-methyl-N2-(prop-2-yn-1-yl)-N4-(propan-2-yl)quinazoline-2,4-diamine] | 2 | 2 |  |  |
| C#CCN(C)c1nc(NCC)c2ccccc2n1 [I-6c, N4-ethyl-N2-methyl-N2-(prop-2-yn-1-yl)quinazoline-2,4-diamine] | 4 | 0 |  |  |
| C#CCN(C)c1nc(NC2CC2)c2cc(OC)ccc2n1 [III-6g, N4-cyclopropyl-6-methoxy-N2-methyl-N2-(prop-2-yn-1-yl)quinazoline-2,4-diamine] | 5 | 0 |  |  |
| C#CCN(C)c1nc(N)c2ccccc2n1 [I-6a, N2-methyl-N2-(prop-2-yn-1-yl)quinazoline-2,4-diamine] | 5 | 0 |  |  |
| C#CCN(C)c1nc(NC2CCCCC2)c2cc(OC)ccc2n1 [III-6h, N4-cyclohexyl-6-methoxy-N2-methyl-N2-(prop-2-yn-1-yl)quinazoline-2,4-diamine] | 3 | 2 |  |  |
| Nc1c2c(nc3ccccc13)CCCC2 [THA, tacrine, reference compound] |  |  | 122.11 ± 0.02 |  |
| C#CCN(C)c1nc(NCC)c2cc(OC)ccc2n1 [III-6c, N4-ethyl-6-methoxy-N2-methyl-N2-(prop-2-yn-1-yl)quinazoline-2,4-diamine] | 7 | 2 |  |  |
| C#CCN(C)c1nc(NC2CC2)c2ccccc2n1 [I-6g, N4-cyclopropyl-N2-methyl-N2-(prop-2-yn-1-yl)quinazoline-2,4-diamine] | 4 | 2 |  |  |
| C#CCN(C)c1nc(NC)c2ccc(Cl)cc2n1 [II-6b, 7-chloro-N2,N4-dimethyl-N2-(prop-2-yn-1-yl)quinazoline-2,4-diamine] | 15 | 2 |  |  |
| C#CCN(C)c1nc(NCCOC)c2ccccc2n1 [I-6f, N4-(2-methoxyethyl)-N2-methyl-N2-(prop-2-yn-1-yl)quinazoline-2,4-diamine] | 5 | 1 |  |  |
| C#CCN(C)c1nc(NC)c2cc(OC)ccc2n1 [III-6b, 6-methoxy-N2,N4-dimethyl-N2-(prop-2-yn-1-yl)quinazoline-2,4-diamine] | 4 | 1 |  |  |
| COc1ccc2nc3c(c(N)c2c1)CCCC3 [7-MEOTA, reference compound] |  | 18 |  | ~60 |
| C#CCN(C)c1nc(NC2CC2)c2ccc(Cl)cc2n1 [II-6g, 7-chloro-N4-cyclopropyl-N2-methyl-N2-(prop-2-yn-1-yl)quinazoline-2,4-diamine] | 4 | 0 |  |  |
| C#CCN(C)c1nc(NCCCC)c2cc(OC)ccc2n1 [III-6e, N4-butyl-6-methoxy-N2-methyl-N2-(prop-2-yn-1-yl)quinazoline-2,4-diamine] | 8 | 1 |  |  |
| C#CCN(C)c1nc(NCCOC)c2ccc(Cl)cc2n1 [II-6f, 7-chloro-N4-(2-methoxyethyl)-N2-methyl-N2-(prop-2-yn-1-yl)quinazoline-2,4-diamine] | 9 | 2 |  |  |
| C#CCN(C)c1nc(NC(C)C)c2ccc(Cl)cc2n1 [II-6d, 7-chloro-N2-methyl-N2-(prop-2-yn-1-yl)-N4-(propan-2-yl)quinazoline-2,4-diamine] | 1 | 3 |  |  |
| C#CCN(C)c1nc(NCC)c2ccc(Cl)cc2n1 [II-6c, 7-chloro-N4-ethyl-N2-methyl-N2-(prop-2-yn-1-yl)quinazoline-2,4-diamine] | 4 | 0 |  |  |
| C#CCN(C)c1nc(NCCOC)c2cc(OC)ccc2n1 [III-6f, 6-methoxy-N4-(2-methoxyethyl)-N2-methyl-N2-(prop-2-yn-1-yl)quinazoline-2,4-diamine] | 6 | 1 |  |  |
| C#CCN(C)c1nc(N)c2ccc(Cl)cc2n1 [II-6a, 7-chloro-N2-methyl-N2-(prop-2-yn-1-yl)quinazoline-2,4-diamine] | 7 | 2 |  |  |
| C#CCN(C)c1nc(NC(C)C)c2ccccc2n1 [I-6d, N2-methyl-N2-(prop-2-yn-1-yl)-N4-(propan-2-yl)quinazoline-2,4-diamine] | 4 | 1 |  |  |
| C#CCN(C)c1nc(NC)c2ccccc2n1 [I-6b, N2,N4-dimethyl-N2-(prop-2-yn-1-yl)quinazoline-2,4-diamine] | 5 | 3 |  |  |
